Drawing on patent publication US7618990B2, “Oxazolidone derivatives as PR modulators” (Wyeth, priority 2006, dated 2009), this text covers IC50, Ki and melting point for 20 compounds.

The structures appear in SMILES notation.

In data set [1] the test system is alkaline phosphatase activity in T47D cells. Briefly: Effects of progestins and antiprogestins on alkaline phosphatase activity in T47D cells (antagonist mode). It is filed as cell-based. As to conditions: Homo sapiens, in the presence of 1 nM progesterone, 24 h, read-out: T47D Alkaline Phosphatase Activity IC50 (nM) or % inhibition.
The target of data set [2] is T1, progesterone receptor (PR) (Homo sapiens, UniProt P06401).
T1 construct: in live, intact (whole) cells using the human breast carcinoma T47D cell line; endogenous in cells; host or cells: T47D human breast carcinoma cells
T1 sequence (P06401 1-933): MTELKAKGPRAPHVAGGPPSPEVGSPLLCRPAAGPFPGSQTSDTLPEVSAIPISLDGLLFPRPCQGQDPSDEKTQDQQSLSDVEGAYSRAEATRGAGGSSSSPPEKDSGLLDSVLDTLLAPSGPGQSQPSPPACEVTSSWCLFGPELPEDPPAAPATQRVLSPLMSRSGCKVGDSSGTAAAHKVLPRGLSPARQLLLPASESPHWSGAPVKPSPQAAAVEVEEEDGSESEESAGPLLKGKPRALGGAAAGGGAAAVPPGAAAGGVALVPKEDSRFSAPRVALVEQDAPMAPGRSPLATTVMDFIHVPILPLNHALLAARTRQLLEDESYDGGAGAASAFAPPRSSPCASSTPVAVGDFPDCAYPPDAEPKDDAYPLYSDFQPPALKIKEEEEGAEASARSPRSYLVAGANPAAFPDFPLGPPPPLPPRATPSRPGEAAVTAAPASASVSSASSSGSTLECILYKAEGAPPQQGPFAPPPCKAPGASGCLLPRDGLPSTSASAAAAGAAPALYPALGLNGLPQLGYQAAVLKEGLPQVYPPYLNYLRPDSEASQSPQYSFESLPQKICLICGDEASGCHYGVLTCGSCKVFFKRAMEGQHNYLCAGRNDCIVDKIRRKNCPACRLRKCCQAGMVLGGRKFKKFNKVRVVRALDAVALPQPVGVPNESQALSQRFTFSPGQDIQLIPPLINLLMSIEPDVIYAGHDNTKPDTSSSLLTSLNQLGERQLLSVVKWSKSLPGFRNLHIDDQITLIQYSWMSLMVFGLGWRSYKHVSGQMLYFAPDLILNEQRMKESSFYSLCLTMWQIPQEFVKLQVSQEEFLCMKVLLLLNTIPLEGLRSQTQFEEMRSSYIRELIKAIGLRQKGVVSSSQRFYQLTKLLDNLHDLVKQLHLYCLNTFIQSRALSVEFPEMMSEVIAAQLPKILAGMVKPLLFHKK
Briefly: Progesterone receptor whole cell competition binding assay using T47D cells. The settings on record: intact T47D cells, 3 nM 3H-progesterone, 3 h at 37° C. On the procedure:
(2) Progesterone Receptor Whole Cell Competition Binding Assay Using T47D Cells
PURPOSE: To evaluate the progesterone receptor (PR) binding activity of progestins or antiprogestins in live, intact (whole) cells using the human breast carcinoma T47D cell line and ^3H-progesterone as the labeled ligand.
Culture Medium: • 5% RC: phenol red free DMEM:F12 (1:1) (GIBCO, BRL) supplemented with 5% (v/v) charcoal stripped fetal bovine serum (not heat-inactivated), 100 U/mL penicillin, 100 μg/mL streptomycin, and 2 mM the GlutaMax™ reagent (GIBCO, BRL). • 10% RC: Same as above supplemented with 10% (v/v) FBS. • ^3H-Progesterone: Perkin Elmer Life Science, cat# NET-381 (typically around 102 Ci/mmol)
T47D cells were maintained in 10% RC media at 37° C. in a 5% CO2/humidified atmosphere and were split twice weekly for proper response. Cells were plated in 10% RC the day before binding assay at 50,000 cells per well in the white, clear bottom plates purchased through VWR or Perkin Elmer.
Cells plated the day prior to the assay in white clear bottom plates were used. A master compound plate was set up containing control and test compounds at 20× final desired concentration for the competition binding. A typical dose range of 20× concentrations were (in nM); 200,000; 20,000; 6000; 2000; 600; 200; 20; and 2. Final concentrations were (in nM); 10,000; 1000; 300; 100; 30; 10; 1; 0.1. Control compounds were typically run 10-fold lower than this and include a 0, or vehicle, control well. A stock of 60 nM ^3H-progesterone (20×) were also prepared at a volume needed of 10 μL per well.
Media on cells were replaced with 180 μL of 5% RC. Ten microliters (10 μL) of 60 nM ^3H-progesterone (for final concentration of 3 nM) was added immediately, followed by 10 μL of 20× test or control compounds. Compounds were incubated for 3 h at 37° C. (A time course study found no difference between 2 and 4 h incubation.)
Following incubation, media was carefully removed and cells were washed 3× with 200 μL 5% RC each wash. Fifty microliters of liquid scintillation cocktail was added and the plates were shaken vigorously for a minimum of 15 min. Plates were read on the Wallac Microbeta® 1450 plate reader.
Square root-transformed data were used for analysis of variance and calculation of IC50. SAS software (SAS Institute, Inc.) was used for all the statistical analysis.
Progesterone was used as a reference progestin and RU486 as a reference antiprogestin.

As usually defined, the IC50 is the concentration at which inhibition is half-maximal. In general, Ki refers to a dissociation constant, usually derived from enzyme kinetics or from competition with a known ligand. Read a low Ki as tighter binding. In general, melting point refers to the temperature of the solid-liquid transition. For the compound `CC[C@@H]1COC(=O)N1c1nc(-c2ccc(C#N)cc2)cs1` [Example 10, 4-{2-[(4R)-4-Ethyl-2-oxo-1,3-oxazolidin-3-yl]-1,3-thiazol-4-yl}benzonitrile], the melting point was 153 to 157 °C. Moreover, the IC50 in data set [1] was determined as 12.8 nM. The Ki in data set [2] was found to be 23.3 nM.

Compound `CCC1CN(c2nc(-c3ccc(C#N)cc3)cs2)C(=O)O1` (stereo not drawn) [Example 42, 4-[2-(5-Ethyl-2-oxo-1,3-oxazolidin-3-yl)-1,3-thiazol-4-yl]benzonitrile] had a melting point of 168 to 170 °C. Besides, the IC50 in data set [1] is 117 nM. Moreover, in data set [2], the inhibition constant Ki is 700 nM.

The compound `C[C@H]1COC(=O)N1c1nc(-c2ccc(Br)cc2)cs1` [Example 3, (4S)-3-[4-(4-Bromophenyl)-1,3-thiazol-2-yl]-4-methyl-1,3-oxazolidin-2-one] registered a melting point of 196 to 198 °C. Also, in data set [1], the IC50 came to 24.6 nM. In addition, the Ki in data set [2] turned out to be 55.3 nM.

Compound `C[C@H]1COC(=O)N1c1nc(-c2ccc(C#N)cc2)cs1` [Example 4, 4-{2-[(4S)-4-Methyl-2-oxo-1,3-oxazolidin-3-yl]-1,3-thiazol-4-yl}benzonitrile] returned a melting point of 205 to 207 °C. For the same compound, the IC50 in data set [1] turned out to be 15.8 nM. In data set [2], this compound yielded an inhibition constant Ki of 62.8 nM.

With `CCCCC1COC(=O)N1c1nc(-c2ccc(C#N)cc2)cs1` (stereo not drawn) [Example 48, 4-[2-(4-Butyl-2-oxo-1,3-oxazolidin-3-yl)-1,3-thiazol-4-yl]benzonitrile], the melting point fell in the range of 134 to 137 °C. Besides, in data set [1], the IC50 was determined as 23.3 nM. Further, in data set [2], the Ki is 128 nM.

`CC[C@@H]1COC(=O)N1c1nc(-c2ccc(Br)cc2)cs1` [Example 9, (4R)-3-[4-(4-Bromophenyl)-1,3-thiazol-2-yl]-4-ethyl-1,3-oxazolidin-2-one] had a melting point of 134 to 135 °C. Moreover, the IC50 in data set [1] was 32.9 nM. Also, the Ki in data set [2] was 62.1 nM.

`CC(C)C1COC(=O)N1c1nc(-c2ccc(Br)cc2)cs1` (stereo not drawn) [Example 38, 3-[4-(4-Bromophenyl)-1,3-thiazol-2-yl]-4-isopropyl-1,3-oxazolidin-2-one] gave a melting point of 174 to 176 °C. Also, in data set [1], the IC50 worked out at 75.6 nM. The same compound returned a Ki in data set [2] of 108 nM.

With `O=C1OC[C@@H](Cc2ccccc2)N1c1nc(-c2ccc(Br)cc2)cs1` [Example 36, (4R)-4-Benzyl-3-[4-(4-bromophenyl)-1,3-thiazol-2-yl]-1,3-oxazolidin-2-one], the melting point fell in the range of 177 to 179 °C. Also, in data set [1], the IC50 turned out to be 346 nM. Further, the Ki in data set [2] was determined as 968 nM.

As to `O=C1NCCN1c1nc(-c2ccc(Br)cc2)cs1` [Example 75, 1-[4-(4-Bromophenyl)-1,3-thiazol-2-yl]imidazolidin-2-one], the melting point lay in the range of 230 to 233 °C. In addition, the IC50 in data set [1] was 1070 nM. In addition, in data set [2], the Ki is 2080 nM.

Regarding `CC1CN(c2nc(-c3ccc(C#N)cc3)cs2)C(=O)O1` (stereo not drawn) [Example 41, 4-[2-(5-Methyl-2-oxo-1,3-oxazolidin-3-yl)-1,3-thiazol-4-yl]benzonitrile], the melting point is 214 to 216 °C. In addition, the IC50 in data set [1] is 48.3 nM. This compound also registered a Ki in data set [2] of 284 nM.

The compound `CC(C)C[C@H]1COC(=O)N1c1nc(-c2ccc(Br)cc2)cs1` [Example 37, (4S)-3-[4-(4-Bromophenyl)-1,3-thiazol-2-yl]-4-isobutyl-1,3-oxazolidin-2-one] yielded a melting point of 144 to 146 °C. In data set [1], the IC50 is 359 nM. The Ki in data set [2] stood at 566 nM.

In the case of `O=C1OCC2(CCCC2)N1c1nc(-c2ccc(Br)cc2)cs1` [Example 34, 1-[4-(4-Bromophenyl)-1,3-thiazol-2-yl]-3-oxa-1-azaspiro[4.4]nonan-2-one], the melting point lay within 138 to 139 °C. In addition, the IC50 in data set [1] came out at 95.3 nM. Also, affinity in data set [2] was put at a Ki of 529 nM.

`C[C@@H]1COC(=O)N1c1nc(-c2ccc(C#N)cc2)cs1` [Example 2, 4-{2-[(4R)-4-Methyl-2-oxo-1,3-oxazolidin-3-yl]-1,3-thiazol-4-yl}benzonitrile] had a melting point of 227 to 228 °C. The IC50 in data set [1] was found to be 14.6 nM. The compound also had a Ki in data set [2] of 43.4 nM.

In turn, `CC1(C)COC(=O)N1c1nc(-c2ccc(C#N)cc2)c(F)s1` [Example 58, 4-[2-(4,4-dimethyl-2-oxo-1,3-oxazolidin-3-yl)-5-fluoro-1,3-thiazol-4-yl]benzonitrile] showed a melting point of 177 to 178 °C. In addition, the IC50 in data set [1] worked out at 4 nM. The compound also displayed a Ki in data set [2] of 16.1 nM.

As to `CC[C@H]1COC(=O)N1c1nc(-c2ccc(C#N)cc2)cs1` [Example 8, 4-{2-[(4S)-4-Ethyl-2-oxo-1,3-oxazolidin-3-yl]-1,3-thiazol-4-yl}benzonitrile], the melting point fell in the range of 173 to 175 °C. Further, the IC50 in data set [1] amounted to 14.6 nM. In addition, the affinity in data set [2] corresponds to a Ki of 52.6 nM.

The compound `CCC[C@H]1COC(=O)N1c1nc(-c2ccc(C#N)cc2)cs1` [Example 23, 4-{2-[(4S)-2-oxo-4-propyl-1,3-oxazolidin-3-yl]-1,3-thiazol-4-yl}benzonitrile] displayed a melting point of 132 to 135 °C. Moreover, the IC50 in data set [1] was 28.1 nM. This compound also returned a Ki in data set [2] of 41.2 nM.

Compound `C[C@@H]1COC(=O)N1c1nc(-c2ccc(Br)cc2)cs1` [Example 1, (4R)-3-[4-(4-Bromophenyl)-1,3-thiazol-2-yl]-4-methyl-1,3-oxazolidin-2-one] came in with a melting point of 197 to 199 °C. In data set [1], the IC50 came to 22.1 nM. In data set [2], the affinity, expressed as Ki, was 87.6 nM.

Regarding `N#Cc1ccc(-c2csc(N3C(=O)OC[C@H]3CF)n2)cc1` [Example 74, 4-{2-[(4S)-4-(Fluoromethyl)-2-oxo-1,3-oxazolidin-3-yl]-1,3-thiazol-4-yl}benzonitrile], the melting point was in the range of 195 to 196 °C. Further, the IC50 in data set [1] came to 19.8 nM. Also, the Ki in data set [2] stood at 45.1 nM.

Regarding `CCCC1COC(=O)N1c1nc(-c2ccc(C#N)cc2)cs1` (stereo not drawn) [Example 40, 4-[2-(2-Oxo-4-propyl-1,3-oxazolidin-3-yl)-1,3-thiazol-4-yl]benzonitrile], the melting point lay in the range of 132 to 134 °C. For the same compound, the IC50 in data set [1] stood at 9.9 nM. The Ki in data set [2] was 42 nM.

With `N#Cc1ccc(-c2csc(N3C(=O)OC[C@H]3C(F)(F)F)n2)cc1` [Example 65, 4-{2-[(4S)-2-Oxo-4-(trifluoromethyl)-1,3-oxazolidin-3-yl]-1,3-thiazol-4-yl}benzonitrile], the melting point was 208 to 209 °C. Besides, the IC50 in data set [1] came out at 43.2 nM. The Ki in data set [2] was determined as 60.3 nM.
